Test results reported in patent US20260317272A1, “USE OF STROBILURIN TYPE COMPOUNDS FOR COMBATING PHYTOPATHOGENIC FUNGI CONTAINING AN AMINO ACID SUBSTITION F129L IN THE MITOCHONDRIAL CYTOCHROME B PROTEIN CONFERRING RESISTANCE TO QO INHIBITORS XVI” (priority 2023, published 2026).

Legend:
Puccinia triticina [1] = assay: Use Example 6: preventative control of brown rust on wheat (PUCCRT P7); format: in vivo, Puccinia triticina (syn. P. recondita); settings: 16 ppm, seven days before inoculation, 9 to 12 days, untreated 85
Method: (§1) The compound was dissolved in a mixture of acetone and/or dimethylsulfoxide and the wetting agent/emulsifier Wettol, which is based on ethoxylated alkylphenoles, in a ratio (volume) solvent-emulsifier of 99 to 1 to give a total volume of 5 ml. Subsequently, water was added to total volume of 100 ml. This stock solution was then diluted with the described solvent-emulsifier-water mixture to the final concentration given in the tables below.
Use Example 6. Preventative Control of Brown Rust on Wheat Caused by Puccinia triticina (Syn. P. recondita) (PUCCRT P7)
The first two developed leaves of potted wheat seedling were sprayed to run-off with previously described spray solution, containing the concentration of active ingredient or their mixture as described below. Seven days later the plants were dusted with spores of Puccinia triticina. To ensure the success of the artificial inoculation, the plants were transferred to a humid chamber without light and a relative humidity of 95 to 99% and 20 to 24° C. for 24 h. Then the trial plants were cultivated for 9 to 12 days in a greenhouse chamber at 20 to 24° C. and a relative humidity between 65 and 70%. The extent of fungal attack on the leaves was visually assessed as % diseased leaf area.

Puccinia triticina [2] = assay: Use Example 15: activity against Puccinia triticina (PUCCRT, brown rust on wheat) in field; format: in vivo; settings: for Efficacy, %: Abbot's formula, B23; for infection rate, %: B23 (23 days after second treatment), flag leaf
Method: Use Example 15. Activity Against Puccinia triticina (PUCCRT, Brown Rust on Wheat) in Field
Trials were conducted under field conditions in Spain. Spring wheat was planted and grown with adequate supply of water and nutrients. Two applications (A and B) of the test compounds were made at onset of disease (application A) and at second application at an interval of 22 days (application B). The spray solutions were prepared by mixing experimental formulations of the test compounds (50 g/L EC) in water, adding 124 g/ha Plurafac LF301 and Plurafac LF1312 (BASF, low-foaming non-ionic surfactants consisting of alkoxylated, predominantly unbranched fatty alcohols containing higher alkene oxides alongside ethylene oxide), respectively. The spray solutions were applied with 300 I/ha spray volume with a flat fan nozzle.
The infestation levels for brown rust (Puccinia triticina) were evaluated 23 days after the second fungicide treatment (B23), a mean value across the flag leaf level was calculated. In addition, efficacy was calculated using Abbot's formula as in use example 14.

Pyrenophora teres = assay: Use Example 11: control of net blotch on barley (PYRNTE P1); format: in vivo, Pyrenophora (syn. Drechslera) teres; settings: F129L strain, inoculated the next day, 16 ppm, untreated 75%
Method: as §1
Use Example 11. Control of Net Blotch on Barley Caused by Pyrenophora teres (PYRNTE P1)
The first fully developed leaves of potted barley plants were sprayed to run-off previously described spray solution, containing the concentration of active ingredient or their mixture mentioned in the table below. The next day the treated plants were inoculated with an aqueous spore suspension Pyrenophora (syn. Drechslera) teres. The strain used contains the amino acid substitution F129L in the mitochondrial cytochrome b protein conferring resistance to Qo inhibitors. Then the trial plants were cultivated for up to 19 days at 20-24° C. and a relative humidity close to 70%, the extent of fungal attack on the leaves was visually assessed as % diseased leaf area.

Phakopsora pachyrhizi [3] = assay: Use Example 4: protective control of soybean rust on soybeans (PHAKPA P6); format: in vivo; settings: 16 ppm, six days before inoculation, F129L strain, up to 14 days, untreated 90
Method: as §1
Use Example 4. Protective Control of Soybean Rust on Soybeans Caused by Phakopsora pachyrhizi (PHAKPA P6)
Leaves of potted soybean seedlings were sprayed to run-off with the previously described spray solution, containing the concentration of active ingredient as described below. The plants were allowed to air-dry. The trial plants were cultivated for six days in a greenhouse chamber at 23-27° C. and a relative humidity between 60 and 80%. Then the plants were inoculated with spores of Phakopsora pachyrhizi. The strain used contains the amino acid substitution F129L in the mitochondrial cytochrome b protein conferring resistance to Qo inhibitors. To ensure the success the artificial inoculation, the plants were transferred to a humid chamber with a relative humidity of about 95% and 23 to 27° C. for 24 hr. The trial plants were cultivated for up to 14 days in a greenhouse chamber at 23 to 27° C. and a relative humidity between 60 and 80%. The extent of fungal attack on the leaves was visually assessed as % diseased leaf area, the disease level of untreated controls was usually higher than 85%.

Puccinia striiformis = assay: Use Example 10: preventative control of wheat stripe rust on wheat (PUCCST P7); format: in vivo; settings: 16 ppm, untreated 90%
Method: as §1
Use Example 10. Preventative Control of Wheat Stripe Rust on Wheat Caused by Puccinia striiformis (PUCCST P7)
The first two developed leaves of potted wheat seedling were sprayed to run-off with previously described spray solution, containing the concentration of active ingredient or their mixture as described below. Seven days later the plants were inoculated with spores of Puccinia striiformis. To ensure the success of the artificial inoculation, the plants were transferred to a chamber without light and a temperature of 5° C. for 24 h. Then the trial plants were cultivated for up to 14 days in a greenhouse chamber at 16° C. and a relative humidity of minimum 75%. The extent of fungal attack on the leaves was visually assessed as % diseased leaf area.

Phakopsora pachyrhizi [4] = assay: Use Example 5: protective control of soybean rust on soybeans (PHAKPA P9); format: in vivo; settings: 16 ppm, 9 days before inoculation, F129L strain, up to 14 days, untreated 85
Method: as §1
Use Example 5. Protective Control of Soybean Rust on Soybeans Caused by Phakopsora pachyrhizi (PHAKPA P9)
Leaves of potted soybean seedlings were sprayed to run-off with the previously described spray solution, containing the concentration of active ingredient or their mixture as described below. The plants were allowed to air-dry. The trial plants were cultivated for 9 days in a greenhouse chamber at 23-27° C. and a relative humidity between 60 and 80%. Then the plants were inoculated with spores of Phakopsora pachyrhizi. The strain used contains the amino acid substitution F129L in the mitochondrial cytochrome b protein conferring resistance to Qo inhibitors. To ensure the success of the artificial inoculation, the plants were transferred to a humid chamber with a relative humidity of about 95% and 20 to 24° C. for 24 h. The trial plants were cultivated for up to 14 days in a greenhouse chamber at 23-27° C. and a relative humidity between 60 and 80%. The extent of fungal attack on the leaves was visually assessed as % diseased leaf area.

[5] = Table 8, 75 g a.i./ha, untreated infection 75%
[6] = Table 8, 150 g a.i./ha, untreated infection 75%
[7] = Table 8, 75 g a.i./ha, untreated 75%
[8] = Table 8, 150 g a.i./ha, untreated 75%
[9] = Table 10, 75 g a.i./ha, untreated infection 50%
[10] = Table 10, 150 g a.i./ha, untreated infection 50%
[11] = Table 10, 75 g a.i./ha, untreated 50%
[12] = Table 10, 150 g a.i./ha, untreated 50%

| SMILES | Diseased leaf area (%) (Puccinia triticina [1]) | Efficacy, % (Puccinia triticina [2]; [5]) [%] | Efficacy, % (Puccinia triticina [2]; [6]) [%] | infection rate, % (Puccinia triticina [2]; [7]) [%] | infection rate, % (Puccinia triticina [2]; [8]) [%] | Diseased leaf area (%) (Pyrenophora teres) | Diseased leaf area (%) (Phakopsora pachyrhizi [3]) | Diseased leaf area (%) (Puccinia striiformis) | Diseased leaf area (%) (Phakopsora pachyrhizi [4]) | Efficacy, % (Puccinia triticina [2]; [9]) [%] | Efficacy, % (Puccinia triticina [2]; [10]) [%] | infection rate, % (Puccinia triticina [2]; [11]) [%] | infection rate, % (Puccinia triticina [2]; [12]) [%] | Efficacy, % (Puccinia triticina [2]; Table 9, 75 g a.i./ha, untreated infection 74%) [%] | Efficacy, % (Puccinia triticina [2]; Table 9, 150 g a.i./ha, untreated infection 74%) [%] | infection rate, % (Puccinia triticina [2]; Table 9, 75 g a.i./ha, untreated 74%) [%] | infection rate, % (Puccinia triticina [2]; Table 9, 150 g a.i./ha, untreated 74%) [%] |
| --- | --- | --- | --- | --- | --- | --- | --- | --- | --- | --- | --- | --- | --- | --- | --- | --- | --- |
| CO/C=C(/C(=O)OC)c1cccc(C)c1CO/N=C(\COC)c1c(F)cc(F)cc1F [Compound 4, methyl (E)-3-methoxy-2-[2-[[(Z)-[2-methoxy-1-(2,4,6-trifluorophenyl)ethylidene]amino]oxymethyl]-3-methyl-phenyl]prop-2-enoate] | 7 | 95 | 97 | 4 | 2 | 5 | 0 | 0 | 0 | – | – | – | – | – | – | – | – |
| CNC(=O)/C(=N/OC)c1cccc(C)c1CO/N=C(\COC)c1c(F)cc(OC)cc1F [Compound 7, (2E)-2-[2-[[(Z)-[1-(2,6-difluoro-4-methoxy-phenyl)-2-methoxy-ethylidene]amino]oxymethyl]-3-methyl-phenyl]-2-methoxyimino-N-methyl-acetamide] | 6 | 92 | 97 | 6 | 2 | – | 1 | 0 | 1 | – | – | – | – | – | – | – | – |
| CNC(=O)/C(=N/OC)c1cccc(C)c1CO/N=C(\COC)c1ccc(F)c(F)c1 [Compound 5, (2E)-2-[2-[[(Z)-[1-(3,4-difluorophenyl)-2-methoxy-ethylidene]amino]oxymethyl]-3-methylphenyl]-2-methoxyimino-N-methyl-acetamide] | 6 | – | – | – | – | 3 | 0 | 7 | 1 | 84 | 92 | 8 | 4 | – | – | – | – |
| COC/C(=N\OCc1c(C)cccc1/C(=N\OC)C(=O)OC)c1c(F)cc(F)cc1F [Compound 2, methyl (2E)-2-methoxyimino-2-[2-[[(Z)-[2-methoxy-1-(2,4,6-trifluorophenyl)ethylidene]amino]oxymethyl]-3-methyl-phenyl]acetate] | – | 23 | 40 | 58 | 45 | 6 | 7 | 11 | 2 | – | – | – | – | – | – | – | – |
| CNC(=O)/C(=N/OC)c1cccc(C)c1CO/N=C(\COC)c1c(F)cc(F)cc1F [Compound 1, (2E)-2-methoxyimino-2-[2-[[(Z)-[2-methoxy-1-(2,4,6-trifluorophenyl)ethylidene]amino]oxymethyl]-3-methyl-phenyl]-N-methyl-acetamide] | 10 | 60 | 89 | 30 | 8 | 5 | 0 | 13 | 0 | – | – | – | – | – | – | – | – |
| CO/C=C(/C(=O)OC)c1cccc(C)c1CO/N=C(\COC)c1ccc(Cl)cc1Cl [Compound 6, methyl (E)-2-[2-[[(Z)-[1-(2,4-dichlorophenyl)-2-methoxy-ethylidene]amino]oxymethyl]-3-methyl-phenyl]-3-methoxy-prop-2-enoate] | 11 | – | – | – | – | 7 | 9 | 0 | 9 | 40 | 50 | 30 | 25 | – | – | – | – |
| CO/C=C(/C(=O)OC)c1cccc(C)c1CO/N=C(\COC)c1ccc(F)cc1Cl [Compound 3] | 9 | – | – | – | – | 3 | 4 | 0 | 0 | – | – | – | – | 66 | 73 | 25 | 20 |
